Measured values published in patent publication US8163777B2, “Benzimidazolyl-pyridine compounds for inflammation and immune-related uses” (Synta Pharmaceuticals Corp., priority 2006, dated 2012).

system: IL-2, IL-4, IL-5, IL-13, GM-CSF, INF-γ and TNF-α; assay: Inhibition of multiple cytokines in primary human PBMCs (summary statement); format: cell-based; settings: PHA-stimulated PBMCs
Experimental: Cytokine production was measured using commercially available human ELISA assay kits (from Cell Science, Inc.) following the manufacturers instructions.

Q: With `CC(C)(C)OC(=O)Nc1ccc(C(=O)Nc2ccc(-n3c(C(F)(F)F)nc4ccccc43)cc2)c(F)c1F` [Compound 31, N-(4-{N-[4-(2-trifluoromethyl-benzoimidazol-1-yl)-phenyl]-carbamoyl}-2,3-difluoro-phenyl)-carbamic acid t-butyl ester] as the molecule, how does the “inhibition of IL-2, IL-4, IL-5, IL-13, GM-CSF, INF-γ and TNF-α (in words)” value read?
A: potent inhibitors

Q: `CCCCc1ccc(C(=O)Nc2ccc(-n3c(C(F)(F)F)nc4cc(OC)ccc43)cc2)cc1` [Compound 66, 4-Butyl-N-[4-(2-trifluoromethyl-5-methoxy-benzoimidazol-1-yl)-phenyl]-benzamide] was tested. Which “inhibition of IL-2, IL-4, IL-5, IL-13, GM-CSF, INF-γ and TNF-α (in words)” value did it give?
A: potent inhibitors

system: IL-2 production; assay: Inhibition of IL-2 production in PHA-activated Jurkat cells (ELISA); format: cell-based; settings: Homo sapiens, PHA 2.5 μg/mL, 20 hours, bin given with mixed units 500 nM-1 μM
Experimental: Jurkat cells were placed in a 96 well plate (0.5 million cells per well in 1% FBS medium) then test compounds of this invention were added at different concentrations. After 10 minutes, the cells were activated with PHA (final concentration 2.5 μg/mL) and incubated for 20 hours at 37° C. under CO2. The final volume was 200 μL. Following incubation, the cells were centrifuged and the supernatants collected and stored at −70° C. prior to assaying for IL-2 production. A commercial ELISA kit (IL-2 Eli-pair, Diaclone Research, Besancon, France) was used to detect production of IL-2, from which dose response curves were obtained. The IC50 value was calculated as the concentration at which 50% of maximum IL-2 production after stimulation was inhibited versus a non-stimulation control.

Q: For `COc1ccc2c(c1)nc(C(F)(F)F)n2-c1ccc(NC(=O)c2cccc(F)c2)nc1` [Compound 186, 3-Fluoro-N-[5-(5-methoxy-2-trifluoromethyl-benzoimidazol-1-yl)-pyridin-2-yl]-benzamide], which IC50 is on record?
A: 0.5 to 1 µM

Q: `COc1ccc2c(c1)nc(C(F)(F)F)n2-c1ccc(NC(=O)c2csnc2C)nc1` [Compound 194, 3-Methyl-isothiazole-4-carboxylic acid [5-(5-methoxy-2-trifluoromethyl-benzoimidazol-1-yl)-pyridin-2-yl]-amide] was tested. Which IC50 did it give?
A: 0.5 to 1 µM

Q: How did the IC50 turn out when `COc1ccc2c(c1)nc(C(F)(F)F)n2-c1ccc(NC(=O)c2cccc(C)c2)nc1` [Compound 198, N-[5-(5-Methoxy-2-trifluoromethyl-benzoimidazol-1-yl)-pyridin-2-yl]-3-methyl-benzamide] was run?
A: 0.5 to 1 µM

Q: `COc1ccc2c(c1)nc(C(F)(F)F)n2-c1ccc(NC(=O)c2ccc(C)cc2C)nc1` [Compound 200, N-[5-(5-Methoxy-2-trifluoromethyl-benzoimidazol-1-yl)-pyridin-2-yl]-2,4-dimethyl-benzamide] was tested. Which IC50 did it give?
A: 0.5 to 1 µM

same assay, conditions: Homo sapiens, PHA 2.5 μg/mL, 20 hours, binned values

Q: How did the IC50 turn out when `COc1ccc2c(c1)nc(C(F)(F)F)n2-c1ccc(NC(=O)c2cccc(C#N)c2)nc1` [Compound 183, 3-Cyano-N-[5-(5-methoxy-2-trifluoromethyl-benzoimidazol-1-yl)-pyridin-2-yl]-benzamide] was run?
A: 0.1 to 0.5 µM

Q: How did the IC50 turn out when `COc1ccc2c(c1)nc(C(F)(F)F)n2-c1ccc(NC(=O)c2cccc([N+](=O)[O-])c2)nc1` [Compound 184, N-[5-(5-Methoxy-2-trifluoromethyl-benzoimidazol-1-yl)-pyridin-2-yl]-3-nitro-benzamide] was run?
A: 0.1 to 0.5 µM

Q: Which IC50 does the source give for `COc1ccc2c(c1)nc(C(F)(F)F)n2-c1ccc(NC(=O)c2ccccc2F)nc1` [Compound 185, 2-Fluoro-N-[5-(5-methoxy-2-trifluoromethyl-benzoimidazol-1-yl)-pyridin-2-yl]-benzamide] here?
A: < 0.1 µM

Q: With `COc1ccc2c(c1)nc(C(F)(F)F)n2-c1ccc(NC(=O)c2ccccc2I)nc1` [Compound 187, 2-Iodo-N-[5-(5-methoxy-2-trifluoromethyl-benzoimidazol-1-yl)-pyridin-2-yl]-benzamide] as the molecule, how does the IC50 read?
A: < 0.1 µM

Q: With `COc1ccc2c(c1)nc(C(F)(F)F)n2-c1ccc(NC(=O)CC(C)C)nc1` [Compound 189, N-[5-(5-Methoxy-2-trifluoromethyl-benzoimidazol-1-yl)-pyridin-2-yl]-3-methyl-butyramide] as the molecule, how does the IC50 read?
A: < 0.1 µM

Q: Which IC50 does the source give for `COc1ccc2c(c1)nc(C(F)(F)F)n2-c1ccc(NC(=O)c2ccc([N+](=O)[O-])cc2)nc1` [Compound 190, N-[5-(5-Methoxy-2-trifluoromethyl-benzoimidazol-1-yl)-pyridin-2-yl]-4-nitro-benzamide] here?
A: 0.1 to 0.5 µM

Q: For `COc1ccc2c(c1)nc(C(F)(F)F)n2-c1ccc(NC(=O)c2cccc(Br)c2)nc1` [Compound 191, 3-Bromo-N-[5-(5-methoxy-2-trifluoromethyl-benzoimidazol-1-yl)-pyridin-2-yl]-benzamide], which IC50 is on record?
A: 0.1 to 0.5 µM

Q: Which IC50 does the source give for `COC(=O)c1cccc(C(=O)Nc2ccc(-n3c(C(F)(F)F)nc4cc(OC)ccc43)cn2)c1` [Compound 192, N-[5-(5-Methoxy-2-trifluoromethyl-benzoimidazol-1-yl)-pyridin-2-yl]-isophthalamic acid methyl ester] here?
A: 0.1 to 0.5 µM

Q: How did the IC50 turn out when `COc1ccc2c(c1)nc(C(F)(F)F)n2-c1ccc(NC(=O)C2CCCC2)nc1` [Compound 193, Cyclopentanecarboxylic acid [5-(5-methoxy-2-trifluoromethyl-benzoimidazol-1-yl)-pyridin-2-yl]-amide] was run?
A: < 0.1 µM

Q: For `COc1ccc2c(c1)nc(C(F)(F)F)n2-c1ccc(NC(=O)c2scnc2Br)nc1` [Compound 195, 4-Bromo-thiazole-5-carboxylic acid [5-(5-methoxy-2-trifluoromethyl-benzoimidazol-1-yl)-pyridin-2-yl]-amide], which IC50 is on record?
A: 0.1 to 0.5 µM

Q: Which IC50 does the source give for `COc1ccc2c(c1)nc(C(F)(F)F)n2-c1ccc(NC(=O)c2ccc(Br)cc2)nc1` [Compound 196, 4-Bromo-N-[5-(5-methoxy-2-trifluoromethyl-benzoimidazol-1-yl)-pyridin-2-yl]-benzamide] here?
A: 0.1 to 0.5 µM

Q: For `COc1ccc2c(c1)nc(C(F)(F)F)n2-c1ccc(NC(=O)c2ccccc2[N+](=O)[O-])nc1` [Compound 197, 2-Nitro-N-[5-(5-methoxy-2-trifluoromethyl-benzoimidazol-1-yl)-pyridin-2-yl]-benzamide], which IC50 is on record?
A: < 0.1 µM

Q: How did the IC50 turn out when `COc1ccc2c(c1)nc(C(F)(F)F)n2-c1ccc(NC(=O)c2ccncc2F)nc1` [Compound 201, 3-Fluoro-N-[5-(5-methoxy-2-trifluoromethyl-benzoimidazol-1-yl)-pyridin-2-yl]-isonicotinamide] was run?
A: 0.1 to 0.5 µM

Q: With `COc1ccc2c(c1)nc(C(F)(F)F)n2-c1ccc(NC(=O)c2cccc(C)c2C)nc1` [Compound 202, N-[5-(5-Methoxy-2-trifluoromethyl-benzoimidazol-1-yl)-pyridin-2-yl]-2,3-dimethyl-benzamide] as the molecule, how does the IC50 read?
A: < 0.1 µM

Q: For `COc1ccc2c(c1)nc(C(F)(F)F)n2-c1ccc(NC(=O)c2ccc(N(C)C)cc2)nc1` [Compound 203, 4-Dimethylamino-N-[5-(5-methoxy-2-trifluoromethyl-benzoimidazol-1-yl)-pyridin-2-yl]-benzamide], which IC50 is on record?
A: > 1 µM

Q: With `COc1cccc(C(=O)Nc2ccc(-n3c(C(F)(F)F)nc4cc(OC)ccc43)cn2)c1` [Compound 204, 3-Methoxy-N-[5-(5-methoxy-2-trifluoromethyl-benzoimidazol-1-yl)-pyridin-2-yl]-benzamide] as the molecule, how does the IC50 read?
A: > 1 µM

Q: `COc1ccc2c(c1)nc(C(F)(F)F)n2-c1ccc(NC(=O)c2csnn2)nc1` [Compound 205, [1,2,3]Thiadiazole-4-carboxylic acid [5-(5-methoxy-2-trifluoromethyl-benzoimidazol-1-yl)-pyridin-2-yl]-amide] was tested. Which IC50 did it give?
A: > 1 µM

Q: With `COc1ccc2c(c1)nc(C(F)(F)F)n2-c1ccc(NC(=O)c2ccccc2OC)nc1` [Compound 206, 2-Methoxy-N-[5-(5-methoxy-2-trifluoromethyl-benzoimidazol-1-yl)-pyridin-2-yl]-benzamide] as the molecule, how does the IC50 read?
A: > 1 µM

Q: `CCCc1ccc(C(=O)Nc2ccc(-n3c(C(F)(F)F)nc4cc(OC)ccc43)cn2)cc1` [Compound 207, N-[5-(5-Methoxy-2-trifluoromethyl-benzoimidazol-1-yl)-pyridin-2-yl]-4-propyl-benzamide] was tested. Which IC50 did it give?
A: > 1 µM

Q: With `COc1ccc2c(c1)nc(C(F)(F)F)n2-c1ccc(NC(=O)c2cccc(N(C)C)c2)nc1` [Compound 208, 3-Dimethylamino-N-[5-(5-methoxy-2-trifluoromethyl-benzoimidazol-1-yl)-pyridin-2-yl]-benzamide] as the molecule, how does the IC50 read?
A: > 1 µM

Q: Which IC50 does the source give for `COc1ccc2c(c1)nc(C(F)(F)F)n2-c1ccc(NC(=O)c2cccc(SC)c2)nc1` [Compound 209, N-[5-(5-Methoxy-2-trifluoromethyl-benzoimidazol-1-yl)-pyridin-2-yl]-3-methylsulfanyl-benzamide] here?
A: > 1 µM

Q: For `COc1ccc2c(c1)nc(C(F)(F)F)n2-c1ccc(NC(=O)c2ccc(SC)cc2)nc1` [Compound 210, N-[5-(5-Methoxy-2-trifluoromethyl-benzoimidazol-1-yl)-pyridin-2-yl]-4-methylsulfanyl-benzamide], which IC50 is on record?
A: > 1 µM

Q: Which IC50 does the source give for `COc1ccc2c(c1)nc(C(F)(F)F)n2-c1ccc(NC(=O)c2ccc(C)cc2)nc1` [Compound 211, N-[5-(5-Methoxy-2-trifluoromethyl-benzoimidazol-1-yl)-pyridin-2-yl]-4-methyl-benzamide] here?
A: > 1 µM

Q: Which IC50 does the source give for `CNCc1ccc(C(=O)Nc2ccc(-n3c(C(F)(F)F)nc4cc(OC)ccc43)cn2)cc1` [Compound 212, N-[5-(5-Methoxy-2-trifluoromethyl-benzoimidazol-1-yl)-pyridin-2-yl]-4-methylaminomethyl-benzamide] here?
A: > 1 µM

Q: `COc1ccc2c(c1)nc(C(F)(F)F)n2-c1ccc(NC(=O)C(C)(C)C)nc1` [Compound 213, N-[5-(5-Methoxy-2-trifluoromethyl-benzoimidazol-1-yl)-pyridin-2-yl]-2,2-dimethyl-propionamide] was tested. Which IC50 did it give?
A: > 1 µM

Q: For `COc1ccc2c(c1)nc(C(F)(F)F)n2-c1ccc(NC(=O)C(C)C)nc1` [Compound 214, N-[5-(5-Methoxy-2-trifluoromethyl-benzoimidazol-1-yl)-pyridin-2-yl]-isobutyramide], which IC50 is on record?
A: > 1 µM

Q: `CCc1ccc(C(=O)Nc2ccc(-n3c(C(F)(F)F)nc4cc(OC)ccc43)cn2)cc1` [Compound 215, 4-Ethyl-N-[5-(5-methoxy-2-trifluoromethyl-benzoimidazol-1-yl)-pyridin-2-yl]-benzamide] was tested. Which IC50 did it give?
A: > 1 µM

Q: With `COc1ccc2c(c1)nc(C(F)(F)F)n2-c1ccc(NC(=O)c2ncc[nH]2)nc1` [Compound 216, 1H-Imidazole-2-carboxylic acid [5-(5-methoxy-2-trifluoromethyl-benzoimidazol-1-yl)-pyridin-2-yl]-amide] as the molecule, how does the IC50 read?
A: > 1 µM
